Assay results reported in ChEMBL document CHEMBL1135025, “Synthesis of iodinated biochemical tools related to the 2-azetidinone class of cholesterol absorption inhibitors” (2002).
The source made the active and inactive calls. The rule behind the calls is not given here.

Columns and labels:
Cricetinae gen. sp. [1] = test: Effective dose required to produe activity in cholesterol hamster assay was determined; na means not applicable; type: functional, organism-based; settings: Cricetulus griseus
Cricetinae gen. sp. [2] = test: In vivo activity in a cholesterol-fed hamster assay was determined at 1 mg/kg/day; type: functional, Cricetulus griseus
Cricetinae gen. sp. [3] = test: Effective dose required to produe activity in cholesterol hamster assay was determined; type: functional, Cricetulus griseus
Cricetinae gen. sp. [4] = test: In vivo activity in a cholesterol-fed hamster assay was determined at 50 mg/kg/day; type: functional, Cricetulus griseus
Cricetinae gen. sp. [5] = test: In vivo activity in a cholesterol-fed hamster assay was determined at 10 mg/kg/day; type: functional, Cricetulus griseus

Row | SMILES | ED50 (Cricetinae gen. sp. [1]) | Reduction (Cricetinae gen. sp. [2]) | ED50 (Cricetinae gen. sp. [3]) | Reduction (Cricetinae gen. sp. [4]) | Reduction (Cricetinae gen. sp. [5])
1 | O=C1[C@H](CC[C@H](O)c2ccc(I)cc2)[C@@H](c2ccc(O)cc2)N1c1ccc(F)cc1 | inactive | -54% |  |  | 
2 | O=C1[C@H](CC[C@H](O)c2ccc(F)cc2)[C@@H](c2ccc(O)cc2)N1c1ccc(I)cc1 |  | -63% | 0.49 mg/kg/day |  | 
3 | COc1ccc([C@@H]2[C@@H](CCCc3ccccc3)C(=O)N2c2ccc(I)cc2)cc1 (racemic) | inactive |  |  | -82% | 
4 | COc1ccc([C@@H]2[C@@H](CCCc3ccc(I)cc3)C(=O)N2c2ccc(OC)cc2)cc1 (racemic) | inactive |  |  | -56% | 
5 | O=C(O)[C@H]1OC(Oc2ccc([C@@H]3[C@@H](CC[C@H](O)c4ccc(F)cc4)C(=O)N3c3ccc(I)cc3)cc2)C(O)[C@@H](O)[C@@H]1O (single isomer, unassigned) | inactive | -54% |  |  | 
6 | O=C1[C@H](CC[C@H](O)c2ccc(F)cc2)[C@@H](c2ccc(O)cc2)N1c1ccc(F)cc1 [EZETIMIBE] |  | -100% | 0.04 mg/kg/day |  | 
7 | COc1ccc([C@@H]2[C@@H](CCCc3ccccc3)C(=O)N2c2ccc(OC)cc2)cc1 [SCH-48461] |  |  | 2.2 mg/kg/day |  | -93%
